In patent US12435044B2, “Pyridazinone herbicides and pyridazinone intermediates used to prepare a herbicide” (FMC Corporation, priority 2018, dated 2025):

Experiments:
Experiment in all cases: Test C pre-/postemergence greenhouse test
Assay type in all cases: in vivo
Conditions in all cases: scale 0 to 100
[1] = tested on: ryegrass, Italian (Lolium multiflorum)
Source text: (§1) Seeds of plant species selected from blackgrass (Alopecurus myosuroides), ryegrass, Italian (Lolium multiflorum), wheat, winter (winter wheat, Triticum aestivum), galium (catchweed bedstraw, Galium aparine), corn (Zea mays), crabgrass, large (Digitaria sanguinalis), foxtail, giant (Setaria faberii), johnsongrass (Sorghum halepense), lambsquarters (Chenopodium album), morningglory (Ipomoea coccinea), nutsedge, yellow (Cyperus esculentus), pigweed (Amaranthus retroflexus), ragweed (common ragweed, Ambrosia elatior), soybean (Glycine max), barnyardgrass (Echinochloa crus-galli), oilseed rape (Brassica napus), waterhemp (common waterhemp, Amaranthus rudis), pigweed, palmer (Amaranthus palmeri), kochia (Kochia scoparia), oat, wild (Avena fatua), surinam grass (Brachiaria decumbens), windgrass (Apera spica-venti), poinsettia, wild (Euphorbia heterophylla) and velvetleaf (Abutilon theophrasti) were planted into a silt loam soil and treated preemergence with test chemicals formulated in a non-phytotoxic solvent mixture which included a surfactant.
(§2) At the same time, plants selected from these crop and weed species and also chickweed (common chickweed, Stellaria media), buckwheat, wild (Polygonum convolvulus), mustard, wild (Sinapis arvensis), field poppy (Papaver rhoeas), field violet (Viola arvensis), nightshade (eastern black nightshade, Solanum ptycanthum), speedwell (bird's-eye speedwell, Veronica persica), horseweed (Conyza canadensis), cutleaf geranium (Geranium dissectum), and Canada thistle (Cirsium arvense) were planted in pots containing Redi-Earth® planting medium (Scotts Company, 14111 Scottslawn Road, Marysville, Ohio 43041) comprising spaghnum peat moss, vermiculite, wetting agent and starter nutrients and treated with postemergence applications of test chemicals formulated in the same manner. Plants ranged in height from 2 to 18 cm (1- to 4-leaf stage) for postemergence treatments. Treated plants and controls were maintained in a greenhouse for 13 to 21 d, after which time all species were compared to controls and visually evaluated. Plant response ratings, summarized in Table C-1 (postemergence) and C-2 (preemergence), are based on a scale of 0 to 100 where 0 is no effect and 100 is complete control. A dash (-) response means no test result.

[2] = tested on: windgrass (Apera spica-venti)
Source text: as §1, §2

soybean (Glycine max) = tested on: soybean (Glycine max)
Source text: as §1, §2

[3] = tested on: velvetleaf (Abutilon theophrasti)
Source text: as §1, §2

[4] = tested on: wheat, winter (winter wheat, Triticum aestivum)
Source text: as §1, §2

[5] = tested on: crabgrass, large (Digitaria sanguinalis)
Source text: as §1, §2

[6] = tested on: poinsettia, wild (Euphorbia heterophylla)
Source text: as §1, §2

[7] = tested on: foxtail, giant (Setaria faberii)
Source text: as §1, §2

[8] = tested on: pigweed, palmer (Amaranthus palmeri)
Source text: as §1, §2

[9] = tested on: johnsongrass (Sorghum halepense)
Source text: as §1, §2

[10] = tested on: oilseed rape (Brassica napus)
Source text: as §1, §2

[11] = tested on: galium (catchweed bedstraw, Galium aparine)
Source text: as §1, §2

oat, wild (Avena fatua) = tested on: oat, wild (Avena fatua)
Source text: as §1, §2

Cc1ccc2ccc(Cl)cc2c1-c1c(O)c(Cl)nn(C)c1=O [Cpd. No. 22] was tested, and the “Plant response rating, Ryegrass, Italian” value ([1]; Postemergence, 16 g ai/ha) was 70, the “Plant response rating, Ryegrass, Italian” value ([1]; Postemergence, 31 g ai/ha) was 85 and the “Plant response rating, Ryegrass, Italian” value ([1]; Postemergence, 62 g ai/ha) was 95. For the same compound, the “Plant response rating, Ryegrass, Italian” value ([1]; Postemergence, 125 g ai/ha) was 100, the “Plant response rating, Ryegrass, Italian” value ([1]; Preemergence, 31 g ai/ha) was 25 and the “Plant response rating, Ryegrass, Italian” value ([1]; Preemergence, 61 g ai/ha) was 5. For the same compound, the “Plant response rating, Ryegrass, Italian” value ([1]; Preemergence, 62 g ai/ha) was 98, the “Plant response rating, Ryegrass, Italian” value ([1]; Preemergence, 125 g ai/ha) was 90 and the “Plant response rating, Windgrass” value ([2]; Postemergence, 16 g ai/ha) was 85. The “Plant response rating, Windgrass” value ([2]; Postemergence, 31 g ai/ha) was 85, the “Plant response rating, Windgrass” value ([2]; Postemergence, 62 g ai/ha) was 100 and the “Plant response rating, Windgrass” value ([2]; Postemergence, 125 g ai/ha) was 100. For the same compound, the “Plant response rating, Windgrass” value ([2]; Preemergence, 31 g ai/ha) was 80, the “Plant response rating, Windgrass” value ([2]; Preemergence, 61 g ai/ha) was 0 and the “Plant response rating, Windgrass” value ([2]; Preemergence, 62 g ai/ha) was 85. The “Plant response rating, Windgrass” value ([2]; Preemergence, 125 g ai/ha) was 100, the “Plant response rating, Soybean” value (soybean (Glycine max); Postemergence, 16 g ai/ha) was 5 and the “Plant response rating, Soybean” value (soybean (Glycine max); Postemergence, 31 g ai/ha) was 10. For the same compound, the “Plant response rating, Soybean” value (soybean (Glycine max); Postemergence, 62 g ai/ha) was 20, the “Plant response rating, Soybean” value (soybean (Glycine max); Postemergence, 125 g ai/ha) was 25 and the “Plant response rating, Soybean” value (soybean (Glycine max); Preemergence, 31 g ai/ha) was 5. For the same compound, the “Plant response rating, Soybean” value (soybean (Glycine max); Preemergence, 61 g ai/ha) was 0, the “Plant response rating, Soybean” value (soybean (Glycine max); Preemergence, 62 g ai/ha) was 0 and the “Plant response rating, Soybean” value (soybean (Glycine max); Preemergence, 125 g ai/ha) was 30. For the same compound, the “Plant response rating, Velvetleaf” value ([3]; Postemergence, 16 g ai/ha) was 55, the “Plant response rating, Velvetleaf” value ([3]; Postemergence, 31 g ai/ha) was 60 and the “Plant response rating, Velvetleaf” value ([3]; Postemergence, 62 g ai/ha) was 80. The “Plant response rating, Velvetleaf” value ([3]; Postemergence, 125 g ai/ha) was 85, the “Plant response rating, Velvetleaf” value ([3]; Preemergence, 31 g ai/ha) was 60 and the “Plant response rating, Velvetleaf” value ([3]; Preemergence, 61 g ai/ha) was 10. The “Plant response rating, Velvetleaf” value ([3]; Preemergence, 62 g ai/ha) was 90, the “Plant response rating, Velvetleaf” value ([3]; Preemergence, 125 g ai/ha) was 80 and the “Plant response rating, Wheat” value ([4]; Postemergence, 16 g ai/ha) was 85. The “Plant response rating, Wheat” value ([4]; Postemergence, 31 g ai/ha) was 90, the “Plant response rating, Wheat” value ([4]; Postemergence, 62 g ai/ha) was 90 and the “Plant response rating, Wheat” value ([4]; Postemergence, 125 g ai/ha) was 95. For the same compound, the “Plant response rating, Wheat” value ([4]; Preemergence, 31 g ai/ha) was 85, the “Plant response rating, Wheat” value ([4]; Preemergence, 61 g ai/ha) was 60 and the “Plant response rating, Wheat” value ([4]; Preemergence, 62 g ai/ha) was 95. The “Plant response rating, Wheat” value ([4]; Preemergence, 125 g ai/ha) was 100, the “Plant response rating, Crabgrass, Large” value ([5]; Postemergence, 16 g ai/ha) was 10 and the “Plant response rating, Crabgrass, Large” value ([5]; Postemergence, 31 g ai/ha) was 25. For the same compound, the “Plant response rating, Crabgrass, Large” value ([5]; Postemergence, 62 g ai/ha) was 15, the “Plant response rating, Crabgrass, Large” value ([5]; Postemergence, 125 g ai/ha) was 60 and the “Plant response rating, Crabgrass, Large” value ([5]; Preemergence, 31 g ai/ha) was 25. For the same compound, the “Plant response rating, Crabgrass, Large” value ([5]; Preemergence, 61 g ai/ha) was 5, the “Plant response rating, Crabgrass, Large” value ([5]; Preemergence, 62 g ai/ha) was 75 and the “Plant response rating, Crabgrass, Large” value ([5]; Preemergence, 125 g ai/ha) was 85. For the same compound, the “Plant response rating, Poinsettia, Wild” value ([6]; Postemergence, 16 g ai/ha) was 25, the “Plant response rating, Poinsettia, Wild” value ([6]; Postemergence, 31 g ai/ha) was 25 and the “Plant response rating, Poinsettia, Wild” value ([6]; Postemergence, 62 g ai/ha) was 40. For the same compound, the “Plant response rating, Poinsettia, Wild” value ([6]; Postemergence, 125 g ai/ha) was 35, the “Plant response rating, Poinsettia, Wild” value ([6]; Preemergence, 31 g ai/ha) was 5 and the “Plant response rating, Poinsettia, Wild” value ([6]; Preemergence, 61 g ai/ha) was 5. The “Plant response rating, Poinsettia, Wild” value ([6]; Preemergence, 62 g ai/ha) was 10, the “Plant response rating, Poinsettia, Wild” value ([6]; Preemergence, 125 g ai/ha) was 35 and the “Plant response rating, Foxtail, Giant” value ([7]; Postemergence, 16 g ai/ha) was 85. For the same compound, the “Plant response rating, Foxtail, Giant” value ([7]; Postemergence, 31 g ai/ha) was 90, the “Plant response rating, Foxtail, Giant” value ([7]; Postemergence, 62 g ai/ha) was 95 and the “Plant response rating, Foxtail, Giant” value ([7]; Postemergence, 125 g ai/ha) was 98. For the same compound, the “Plant response rating, Foxtail, Giant” value ([7]; Preemergence, 31 g ai/ha) was 80, the “Plant response rating, Foxtail, Giant” value ([7]; Preemergence, 61 g ai/ha) was 0 and the “Plant response rating, Foxtail, Giant” value ([7]; Preemergence, 62 g ai/ha) was 100. The “Plant response rating, Foxtail, Giant” value ([7]; Preemergence, 125 g ai/ha) was 100, the “Plant response rating, Pigweed, Palmer” value ([8]; Postemergence, 16 g ai/ha) was 50 and the “Plant response rating, Pigweed, Palmer” value ([8]; Postemergence, 31 g ai/ha) was 70. The “Plant response rating, Pigweed, Palmer” value ([8]; Postemergence, 62 g ai/ha) was 70, the “Plant response rating, Pigweed, Palmer” value ([8]; Postemergence, 125 g ai/ha) was 75 and the “Plant response rating, Pigweed, Palmer” value ([8]; Preemergence, 31 g ai/ha) was 65. For the same compound, the “Plant response rating, Pigweed, Palmer” value ([8]; Preemergence, 61 g ai/ha) was 40, the “Plant response rating, Pigweed, Palmer” value ([8]; Preemergence, 62 g ai/ha) was 75 and the “Plant response rating, Pigweed, Palmer” value ([8]; Preemergence, 125 g ai/ha) was 100. The “Plant response rating, Johnsongrass” value ([9]; Postemergence, 16 g ai/ha) was 20, the “Plant response rating, Johnsongrass” value ([9]; Postemergence, 31 g ai/ha) was 40 and the “Plant response rating, Johnsongrass” value ([9]; Postemergence, 62 g ai/ha) was 50. The “Plant response rating, Johnsongrass” value ([9]; Postemergence, 125 g ai/ha) was 60, the “Plant response rating, Johnsongrass” value ([9]; Preemergence, 31 g ai/ha) was 30 and the “Plant response rating, Johnsongrass” value ([9]; Preemergence, 61 g ai/ha) was 5. The “Plant response rating, Johnsongrass” value ([9]; Preemergence, 62 g ai/ha) was 50, the “Plant response rating, Johnsongrass” value ([9]; Preemergence, 125 g ai/ha) was 70 and the “Plant response rating, Oilseed Rape” value ([10]; Postemergence, 16 g ai/ha) was 85. The “Plant response rating, Oilseed Rape” value ([10]; Postemergence, 31 g ai/ha) was 90, the “Plant response rating, Oilseed Rape” value ([10]; Postemergence, 62 g ai/ha) was 95 and the “Plant response rating, Oilseed Rape” value ([10]; Postemergence, 125 g ai/ha) was 100. For the same compound, the “Plant response rating, Oilseed Rape” value ([10]; Preemergence, 31 g ai/ha) was 0, the “Plant response rating, Oilseed Rape” value ([10]; Preemergence, 61 g ai/ha) was 0 and the “Plant response rating, Oilseed Rape” value ([10]; Preemergence, 62 g ai/ha) was 100. The “Plant response rating, Oilseed Rape” value ([10]; Preemergence, 125 g ai/ha) was 100, the “Plant response rating, Galium” value ([11]; Postemergence, 16 g ai/ha) was 85 and the “Plant response rating, Galium” value ([11]; Postemergence, 31 g ai/ha) was 85. For the same compound, the “Plant response rating, Galium” value ([11]; Postemergence, 62 g ai/ha) was 95, the “Plant response rating, Galium” value ([11]; Postemergence, 125 g ai/ha) was 98 and the “Plant response rating, Galium” value ([11]; Preemergence, 31 g ai/ha) was 50. The “Plant response rating, Galium” value ([11]; Preemergence, 61 g ai/ha) was 20, the “Plant response rating, Galium” value ([11]; Preemergence, 62 g ai/ha) was 70 and the “Plant response rating, Galium” value ([11]; Preemergence, 125 g ai/ha) was 95. The “Plant response rating, Oat, Wild” value (oat, wild (Avena fatua); Postemergence, 16 g ai/ha) was 98, the “Plant response rating, Oat, Wild” value (oat, wild (Avena fatua); Postemergence, 31 g ai/ha) was 100 and the “Plant response rating, Oat, Wild” value (oat, wild (Avena fatua); Postemergence, 62 g ai/ha) was 100. The “Plant response rating, Oat, Wild” value (oat, wild (Avena fatua); Postemergence, 125 g ai/ha) was 100, the “Plant response rating, Oat, Wild” value (oat, wild (Avena fatua); Preemergence, 31 g ai/ha) was 30 and the “Plant response rating, Oat, Wild” value (oat, wild (Avena fatua); Preemergence, 61 g ai/ha) was 0. For the same compound, the “Plant response rating, Oat, Wild” value (oat, wild (Avena fatua); Preemergence, 62 g ai/ha) was 45 and the “Plant response rating, Oat, Wild” value (oat, wild (Avena fatua); Preemergence, 125 g ai/ha) was 95.
